Data from patent US20140275090A1, “BILE ACID RECYCLING INHIBITORS FOR TREATMENT OF PRIMARY SCLEROSING CHOLANGITIS AND INFLAMMATORY BOWEL DISEASE” (Lumena Pharmaceuticals, Inc., priority 2013, published 2014).
Where “and” joins values, the source holds several entries; their conditions need not be identical. Equal values may be shown once.

Legend:
[1] = test system: plasma bile acids; experiment: Plasma bile acid concentrations in ZDF rats, oral gavage twice a day for 2 weeks; assay type: in vivo, ZDF rat
Description: Male Zucker diabetic fatty rats (ZDF/GmiCrl-fa/fa) were purchased from Charles River (Raleigh, N.C.) and housed under controlled conditions (12:12 light-dark cycle, 24° C. and 50% relative humidity) with free access to rodent food (Purina 5008, Harlan Teklad, Indianapolis, Ind.). All rats arrived at seven weeks of age (±3 days). After a one-week acclimation period, rats were anesthetized with isoflurane (Abbott Laboratories, IL) and tail-vein blood samples were collected at 9 am without fasting. Blood glucose levels were measured using a glucometer (Bayer, Leverkusen, Germany). In order to ensure balanced treatment groups, ZDF rats were assigned to six treatment groups based upon baseline glucose: vehicle (0.5% HPMC, 0.1% Tween80) and five doses of 264W94 (0.001, 0.01, 0.1, 1, 10 mg/kg). […]
(§1) Non-esterified fatty acids (NEFA), bile acids, and bile acids in fecal extraction were measured using the Olympus AU640 clinical chemistry analyzer (Beckman Coulter, Irving, Tex.).
Male ZDF rats (n=4) were administered vehicle, SC-435 (1, 10 or 30 mg/kg) or LUM002 (0.3, 1, 3, 10 or 30 mg/kg) by oral gavage twice a day for 2 weeks. Plasma bile acid levels were determined at the end of the second week. […] Data are expressed as mean values ±SEM.

[2] = test system: total serum bile acids; experiment: ZDF rat 3-week study: plasma total serum bile acids; assay type: in vivo; details: ZDF rats, twice daily oral gavage, Week 3
Description: (§2) Animals were acclimatized for 5-7 days after arrival.
(§3) Key efficacy, metabolic and liver function parameters were assessed: Total 24 hr fecal and total serum bile acid concentrations; Plasma ALP, ALT, AST, BUN, creatinine; Fasting glucose and insulin concentrations, glucose/insulin ratio, blood percent HbA1c and Oral Glucose Tolerance Test (glucose excursion, insulin, GLP-1); Plasma GLP-1, GLP-2 and FGF21 concentrations.

[3] = test system: plasma ALP, ASAT, ALAT; experiment: ZDF rat 3-week study: liver function (ALP, ASAT, ALAT); assay type: in vivo; details: ZDF rats, twice daily oral gavage, Week 3
Description: as §2, §3

[4] = test system: Hemoglobin A1c (HbA1c); experiment: ZDF rat 3-week study: baseline-corrected percent HbA1c; assay type: in vivo; details: ZDF rats, twice daily oral gavage
Description: as §2, §3

[5] = test system: GLP-2; experiment: ZDF rat study: GLP-2 in plasma; assay type: in vivo; details: non-fasted ZDF rats, 2 weeks treatment, higher doses
Description: as §2, §3

[6] = test system: plasma lipase, plasma amylase; experiment: ZDF rat 3-week study: exocrine pancreas function (plasma lipase, amylase); assay type: in vivo; details: ZDF rats; for Plasma Amylase: Week 3; for Plasma Lipase: Week 3, higher doses
Description: as §2, §3

[7] = test system: liver injury after partial bile duct ligation; experiment: Partial bile duct ligation (pBDL) in rats: liver histology and cholangiocyte mitotic figures; assay type: in vivo, rat; details: for Total number of cholangiocytes in 50 fields / Total number of mitotic figures in 50 fields: pBDL rat, 10 mg/kg once daily oral gavage
Description: Rats were anesthetized with isoflurane, the common bile duct exposed by midline laparotomy and a short length of PE-10 tubing placed parallel to the bile duct. A ligature of 4-0 silk suture was tied tightly around the duct and tubing after which the tubing was removed resulting in constriction of the duct lumen without complete obstruction SC-435 was administered to the test group by once daily oral gavage (10 mg/kg) starting one day prior to pBDL surgery.
All animals were euthanized on Day 14. The liver was collected from all animals and preserved in 10% formalin. The preserved livers from all animals were processed, embedded in paraffin, sectioned and stained with hematoxylin and eosin (H&E). The resulting slides were evaluated. Microscopic findings, when present, were graded subjectively on a scale of 0 to 4 according to the intensity and extent of change, where 0=finding not present; 1=minimal; 2=mild; 3=moderate and 4=marked. Additionally, quantitation of cholangiocyte (bile duct epithelial cells) mitotic nuclei was accomplished by counting the number of mitotic cells and the total number of cholangiocytes in 50 randomly selected high-powered (40× objective) fields.

[8] = test system: fecal excretion of [14C]taurocholic acid (TCA); experiment: Fecal excretion of [14C]taurocholic acid in Syrian hamster after LUM002; assay type: in vivo; details: nonfasted Golden Syrian hamsters, oral gavage, 24 h feces
Description: To study the effect of LUM002 on fecal excretion of [^14C]taurocholic acid (TCA) in the Syrian hamster in vivo, [^14C]TCA was administered intraperitoneally 1 hour before dosing the test compound. Each animal was dosed with […] [^14C]TCA. LUM002 was dosed by oral gavage (5 mL/kg per administration) in either 5% (v/v) Solutol with 0.5% hydroxyethylcellulose (HEC) or 0.5% HEC alone. The first half of dose of test compound/vehicle was given 1 hour after [^14C]TCA injection, followed by the second half of dose 7 hours after the first dose of test compound/vehicle. Feces were collected for 24 hours after [^14C]TCA administration and aliquots from feces were combusted for determination of [^14C] excretion.
The ED200 (dose which doubles the fecal excretion of [^14C] label vs. control from dose response curve, including 95% Confidence interval) was calculated from a dose response curve.

[9] = Pharmacokinetics of [14C]LUM002 after single PO or IV administration to rats; assay type: in vivo, Sprague Dawley Rat
Description: To each rat either a single oral (PO; 20 mg/kg free acid) or a single intravenous (IV; 2 mg/kg free acid) dose of [^14C]LUM002 was administered. For PO and IV administration, the test substance was prepared with the adequate amount of water to reach a solution with a concentration of approximately 4 mg/g (PO) and 1 mg/g (IV). Oral administration was a gavage using a stomach tube and IV administration was a bolus injection into the tail vein. Exact doses administered to animals were calculated according to syringe weights.
The doses of radioactivity actually administered were determined by using standards prior to and after treatment of the animals. Blood—Animals were anaesthetized (Isoflurane) for blood sampling (3 animals/time point) and then euthanized by […]. Blood samples (maximal volume from each animal approx. 8 mL) were withdrawn from the abdominal aorta into containers containing a small amount of lithium heparin. and samples were centrifuged for 2 minutes at 1540 g. Aliquots (100 μL) of blood were used for hematocrit determination. Animals for the control groups (male and/or female) were used as predose animals for sampling of untreated biological samples (blood and plasma or liver, myocardium, kidneys only from male control animals). Plasma—To obtain plasma, blood samples were centrifuged for 10 minutes and stored cooled before final division.
Bioanalytical analysis −50 μL of plasma samples were placed into an 1.5 mL reaction tube. 5 μL methanol was added to each sample. For protein precipitation, 100 μL of the internal standard working solution (100 ng/mL of benzyl-13C6-LUM002 in acetonitrile) and 50 μL acetonitrile were added. In case of double blank samples, pure acetonitrile was added. Tubes were sealed and mixed thoroughly for 10 seconds. The tubes were centrifuged for 5 minutes at ≧3000 g. 50 μL of the clear supernatant was transferred into an autoinjector vial and were diluted with 50 μL deionized water. Analysis of samples was performed by using LC-MS/MS (injection volume 50-75 μL) with a lower limit of quantification in the assay of 1 ng/mL for LUM002.

[10] = Pharmacokinetics of LUM002 single 100 mg oral solution in healthy male subjects; assay type: in vivo, human
Description: Healthy male subjects, from 18 to 45 years of age, were given a single oral solution dose (100 mg in 100 mL) of LUM002 under fasting conditions. Blood samples for the determination of LUM002 plasma concentration were collected predose and 0.5, 1, 2, 3, 4, 5, 6, 8, 10, 12, 16, 24, and 48 hours after treatment administration. Plasma was obtained by centrifugation and […] processed for protein precipitation, centrifuged again to remove the precipitate and the supernatant prepared for LC-MS/MS analysis. LUM002 plasma concentrations were determined using a validated liquid chromatography tandem mass spectrometry (LC-MS/MS) assay with a lower limit of quantification (LLOQ) of 0.1 ng/mL. LUM002 plasma concentrations were used to determine the following pharmacokinetic parameters using standard noncompartmental techniques: Cmax, Tmax, AUCslast, and, if applicable due to the low-absorbable characteristics of LUM002, also AUC, AUC0-24 and t1/2z.

[11] = test system: fecal bile acids; experiment: Fecal bile acid excretion in ZDF rats after oral 264W94; assay type: in vivo, ZDF rat; details: 0.001-10 mg/kg oral gavage twice a day, 2 weeks
Description: Male Zucker diabetic fatty rats (ZDF/GmiCrl-fa/fa) were purchased from Charles River (Raleigh, N.C.) and housed under controlled conditions (12:12 light-dark cycle, 24° C. and 50% relative humidity) with free access to rodent food (Purina 5008, Harlan Teklad, Indianapolis, Ind.). All rats arrived at seven weeks of age (±3 days). After a one-week acclimation period, rats were anesthetized with isoflurane (Abbott Laboratories, IL) and tail-vein blood samples were collected at 9 am without fasting. Blood glucose levels were measured using a glucometer (Bayer, Leverkusen, Germany). In order to ensure balanced treatment groups, ZDF rats were assigned to six treatment groups based upon baseline glucose: vehicle (0.5% HPMC, 0.1% Tween80) and five doses of 264W94 (0.001, 0.01, 0.1, 1, 10 mg/kg). All treatments were given via oral gavage twice a day and animals were followed for two weeks with blood samples collected from tail vein at the end of each week at 9 am without fasting. Fecal samples were collected for 24 hours during the second week of treatment.
as §1

CCCCC1(CCCC)CS(=O)(=O)c2ccc(N(C)C)cc2[C@@H](c2ccc(OCCCC[N+]34CCN(CC3)CC4)cc2)[C@H]1O.CS(=O)(=O)[O-] [SC-435, 1-[4-[4-[(4R,5R)-3,3-dibutyl-7-(dimethylamino)-2,3,4,5-tetrahydro-4-hydroxy-1,1-dioxido-1-benzothiepin-5-yl]phenoxy]butyl]-4-aza-1-azoniabicyclo[2.2.2]octane methanesulfonate salt]
Plasma bile acid levels ([1]; ZDF rats, 1, 10 or 30 mg/kg twice a day): decreased
Plasma Total Serum Bile Acids Concentrations [2]: statistically significant reductions
Plasma Alkaline Phosphatase (ALP) [3]: significant reductions
Baseline-corrected Percent Hemoglobin A1c (HbA1c) [4]: significant dose-dependent reductions
GLP-2 in plasma [5]: significant elevations
Plasma Amylase [6]: Neither LUM002 nor SC-435 cause a statistically significant changes
Plasma Lipase [6]: statistically significant reductions
Hepatocyte necrosis ([7]; pBDL rat livers, Day 14): not present
bile duct proliferation, mixed inflammatory cell infiltration, spindle cell proliferation vs untreated rat livers ([7]; pBDL rat livers, Day 14): reduced incidence and intensity
hepatic necrosis and inflammatory cell infiltration ([7]; pBDL rat livers, by 14 days): less hepatic necrosis and inflammatory cell infiltration
Total number of cholangiocytes in 50 fields ([7]; Day 14, AVG): 533
Total number of mitotic figures in 50 fields ([7]; Day 14, AVG): 0
Total number of mitotic figures in 50 fields ([7]; Day 14, individual rats): 0
Total number of cholangiocytes in 50 fields ([7]; Day 14, individual rats, methanesulfonate salt, 10 mg/kg): 662 and 404
mitotic figures in livers ([7]; pBDL rats, 14 days post surgery): No mitotic figures were observed
morphologic features of liver injury associated cholestasis ([7]; partial bile duct ligation, rats): appeared to ameliorate or inhibit

CCCC[C@]1(CC)CS(=O)(=O)c2ccc(N(C)C)cc2[C@@H](c2cccc(NC(=O)N[C@@H]3O[C@H](COS(=O)(=O)[O-])[C@@H](O)[C@H](OCc4ccccc4)[C@H]3O)c2)[C@H]1O.CCO.O.[K+] [LUM002, potassium((2R,3R,4S,5R,6R)-4-benzyloxy-6-{3-[3-((3S,4R,5R)-3-butyl-7-dimethylamino-3-ethyl-4-hydroxy-1,1-dioxo-2,3,4,5-tetrahydro-1H-benzo[b]thiepin-5-yl)-phenyl]-ureido}-3,5-dihydroxy-tetrahydro-pyran-2-ylmethyl)sulphate ethanolate, hydrate]
effect on fecal excretion of bile acids [8]: significantly increased
AUCinf ([9]; male rat, IV bolus 2 mg/kg free acid): 0.9 ng·h/mL
plasma exposure, 3 female and 1 male animal out of 72 ([9]; rat, PO 20 mg/kg, 2 or 4 h after administration): 1 to 5 ng/mL
plasma exposure, all other animals ([9]; rat, PO 20 mg/kg, limit of quantitation 1 ng/mL): < 1 ng/mL
dose systemically absorbed ([9]; rats): Less than 2%
t1/2 ([10]; 100 mg oral solution, fasting, individual subject): 3.39 h
dose systemically absorbed ([10]; healthy male subjects, 100 mg): Less than 1%
Plasma bile acid levels ([1]; ZDF rats, 0.3, 1, 3, 10 or 30 mg/kg twice a day): decreased
Plasma Total Serum Bile Acids Concentrations [2]: statistically significant reductions
Plasma Alkaline Phosphatase (ALP) [3]: significant reductions
Plasma Aspartate Aminotransferase (ASAT) [3]: statistically significant reduction
Baseline-corrected Percent Hemoglobin A1c (HbA1c) [4]: significant dose-dependent reductions
GLP-2 in plasma [5]: significant elevations
Plasma Amylase [6]: Neither LUM002 nor SC-435 cause a statistically significant changes
Plasma Lipase [6]: statistically significant reductions

CCCC[C@]1(CC)CS(=O)(=O)c2cc(OC)c(OC)cc2[C@@H](c2ccccc2)N1 [Compound 264W94]
elevation of fecal bile acid concentrations vs vehicle treated rats [11]: up to 6.5 fold
